How the values were obtained:
[1] = Solubility of Compound A in dosing vehicles; format: physicochemical
Experimental: PEG-200 formulation for i.p. administration of Compound A: PEG-200 was diluted in deionized destilled water to give a final concentration of 75% (volume/volume). Compound A was weighed to yield a final concentration of 10 mg/ml in 75% PEG-200 vehicle and sonicated for 12×30 seconds with 5 second intervals on ice to generate a Compound A suspension. 100 μL of either Compound A suspension or control vehicle (75% PEG-200) per 20 grams of mice (body weight) was administered via i.p., thus yielding a dose of 50 mg/kg (body weight).
Cremophor EL/alcohol/saline formulation for i.p. administration of Compound A: 40 mg/ml, 20 mg/ml or 10 mg/ml of Compound A was dissolved in Cremophor EL/alcohol (90:10) (volume:volume), respectively, by brief sonication on ice, then freshly diluted 10-fold in saline solution (9% Cremophor EL; 1% ETOH and 90% saline) to give a final concentration of 4 mg/ml, 2 mg/ml and 1 mg/ml, respectively, before injection. 100 μL of Compound A solution at a concentration of […] was administered via i.p. to mice (per 20 grams of body weight), thus yielding a dose of 20 mg/kg (body weight), 10 mg/kg (body weight), and 5 mg/kg (body weight), respectively. The control vehicle was 9% Cremophor EL/1% ETOH/90% saline. […]

[2] = tested on: TNFα; assay: Immunohistochemistry for inflammatory marker TNFα on contused spinal cord; format: in vivo; conditions: rats after contusion injury; 72 h post-injury, 1 mm caudal to epicenter
Experimental: Compound A was tested in both the rat dorsal hemisection (Guth, L. et al. (1980), J. Neurosurgery 52: 73-86) and contusion models (Scheff, S. W. (2003), J. Neurotrauma 20: 179-193) for evaluation of efficacy. These models are widely used in the field of spinal cord injury and replicate many of the pathological aspects found in humans who have sustained a spinal cord injury. Rats were subjected to an experimental spinal cord injury at T8, and were given Compound A shortly thereafter. Behavioral tests to assess the locomotion deficits were performed after the lesion. At the end of the experiment, animals were sacrificed and the spinal cord was collected for histopathological analysis. […] Histological assessment of the tissue at the site of injury was also made in both the drug treated and untreated group. In particular, subsequent to the behavioral measurement, spinal cord tissue from each animal was obtained and serial transverse tissue sections were stained with either anti-neurofilament antibody or antibodies specific for the inflammatory markers, tumor necrosis factor alpha (TNFα) and for the inducible form of nitric oxide synthetase (iNOS), followed by incubation with Alexa Fluor®-conjugated secondary antibodies.
Histological assessment of the tissue at the site of injury was also made in both the drug treated and untreated group. […]

Compound: CC(=O)Nc1ccc(C(=O)NC(C)(C)C)cc1 [Compound A, N-tert-butyl-4-acetamidobenzamide]
- solubility in 9% Cremophor EL, 1% ETOH and 90% saline ([1]; 9% Cremophor EL, 1% ETOH, 90% saline vehicle): quite soluble
- solubility in 75% PEG-200 ([1]; 75% PEG-200 vehicle): not soluble
- inflammatory marker TNFα in the region of the corticospinal tract vs untreated control [2]: decreased
